Each block holds one compound with its values, some of them ahead of it.
Assays:
factor Xa (FXa) = factor Xa (FXa) (Homo sapiens, UniProt P00742); assay: FXa inhibitory activity assay (chromogenic substrate S-2765, absorbance at 405 nm); assay type: biochemical; conditions: in vitro enzymatic activity assay
Procedure: (§1) A stock solution of THR (125 U/mL) was prepared by dissolving 4.16 mg of THR in 1.0 mL of PBS. A stock solution of FXa (0.5 IU/mL) was prepared by dissolving 5.0 mg of FXa in 1.0 mL of PBS. Stock solutions of S-2238 (2 mg/mL) and S-2765 (2.5 mg/mL) were prepared in PBS. The DC extract samples (10 mg/mL) were prepared in a PBS buffer and diluted to 5.0 and 2.5 mg/mL as necessary.
(§2) THR and FXa inhibitory activity assays were performed with an iMark™ Microplate Absorbance Reader (Bio-Rad Laboratories, Inc., Hercules, CA, USA). A DC extract solution of 50 μL and a 50 μL THR solution were mixed and incubated for 10 min at 37 °C. Subsequently, a 100 μL S-2238 (2 mg/mL) solution as the chromogenic substrate was added to start the reaction in the microplate reader. The absorbance was monitored at 405 nm every 30 s for 10 min, and each group was measured three times. […] Except for the enzyme solution and chromogenic substrate, the procedure for assessing the FXa inhibitory activity was exactly the same as for THR. The inhibition rate (%) of THR and FXa was calculated using Formula (1). (1) I(%)=[(dA/dt)blank−(dA/dt)sample]/(dA/dt)blank where I(%) represents the % of inhibition, and (dA/dt)blank and (dA/dt)sample represent the reaction rate of the control and experimental group, respectively. The results were expressed as the mean ± standard deviation (SD) of three experiments.

thrombin (THR) = molecular target: T1, thrombin (THR) (Homo sapiens, UniProt P00734); assay: THR inhibitory activity assay (chromogenic substrate S-2238, absorbance at 405 nm); assay type: biochemical; conditions: in vitro enzymatic activity assay
T1 construct: purchased Sigma-Aldrich
Procedure: as §1, §2

factor Xa (FXa), sequence (P00742 235-488 limits assumed): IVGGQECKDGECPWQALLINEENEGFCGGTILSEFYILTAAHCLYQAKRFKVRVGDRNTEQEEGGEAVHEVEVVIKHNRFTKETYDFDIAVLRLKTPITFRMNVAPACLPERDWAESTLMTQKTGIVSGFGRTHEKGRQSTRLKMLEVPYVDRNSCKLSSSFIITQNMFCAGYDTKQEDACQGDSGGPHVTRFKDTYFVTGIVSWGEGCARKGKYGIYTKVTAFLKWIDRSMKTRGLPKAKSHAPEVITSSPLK
factor Xa (FXa), sequence (P00742 41-179 partner limits assumed): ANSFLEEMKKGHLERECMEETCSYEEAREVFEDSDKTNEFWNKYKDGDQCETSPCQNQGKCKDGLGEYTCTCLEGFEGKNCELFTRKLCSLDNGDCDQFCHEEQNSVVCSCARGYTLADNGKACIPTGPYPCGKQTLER

Structure (SMILES): Cc1coc2c1C(=O)C(=O)c1c-2ccc2c1CCCC2(C)C [Tanshinone IIA]
IC50 (factor Xa (FXa)): 138 µM

Structure (SMILES): Cc1coc2c1C(=O)C(=O)c1c-2ccc2c(C)cccc12 [Tanshinone I]
IC50 (factor Xa (FXa)): 113 µM

Structure (SMILES): COc1cc(/C=C/C(=O)O)ccc1O [Ferulic acid]
IC50 (factor Xa (FXa)): 2490 µM

Structure (SMILES): CCC/C=C1\OC(=O)C2=C1CCC=C2 [Z-ligustilide]
IC50 (thrombin (THR)): 1460 µM

Next, values leading:

IC50 (thrombin (THR)): 185 µM
Structure (SMILES): O=C(/C=C/c1ccc(O)c(O)c1)O[C@@H]1C[C@](O)(C(=O)O)C[C@@H](O)[C@H]1O [Chlorogenic acid]

IC50 (factor Xa (FXa)): 3790 µM
Structure (SMILES): O=C(O)/C=C/c1ccc(O)c(O)c1 [Caffeic acid]

Reference: paper PMC8658787, “Screening of Potential Thrombin and Factor Xa Inhibitors from the Danshen–Chuanxiong Herbal Pair through a Spectrum–Effect Relationship Analysis” (Molecules, 2021)
